From US20260159498A1, “AKT3 MODULATORS” (GEORGIAMUNE LLC, priority 2021, published 2026)
pIC50: −log10 of the molar value.

Biological target: T1, Akt3 (Homo sapiens, UniProt Q9Y243)
T1 construct: endogenous in cells; host or cells: human CD4+/CD45RA+/CD25- naive T cells under Treg induction conditions
Assay: Akt3 inhibition activity
Type: cell-based

T1 sequence (Q9Y243 whole entry): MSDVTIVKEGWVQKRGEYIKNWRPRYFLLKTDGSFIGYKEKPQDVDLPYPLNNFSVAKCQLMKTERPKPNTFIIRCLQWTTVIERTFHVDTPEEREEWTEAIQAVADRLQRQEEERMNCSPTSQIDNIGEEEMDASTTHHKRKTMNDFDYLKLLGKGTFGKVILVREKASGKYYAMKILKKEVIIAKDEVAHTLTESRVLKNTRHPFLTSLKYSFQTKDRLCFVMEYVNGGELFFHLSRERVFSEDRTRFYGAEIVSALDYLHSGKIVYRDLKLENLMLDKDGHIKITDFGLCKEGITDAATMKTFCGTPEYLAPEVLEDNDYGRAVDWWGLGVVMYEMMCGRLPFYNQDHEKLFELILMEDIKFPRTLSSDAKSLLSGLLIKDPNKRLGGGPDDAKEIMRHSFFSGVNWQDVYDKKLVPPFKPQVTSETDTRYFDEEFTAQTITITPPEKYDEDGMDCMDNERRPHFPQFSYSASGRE

pIC50	Compound
> 6.00	Cc1cc(Nc2ccncc2)cc(N2Cc3cc(Nc4ccncc4)ccc3C2=O)c1 [Compound 26, 2-(3-methyl-5-(pyridin-4-ylamino)phenyl)-5-(pyridin-4-ylamino)isoindolin-1-one]
> 6.00	Cc1cc(Nc2ccncc2)cc2c1C(=O)N(c1cccc(Nc3ccncc3)c1)C2 [Compound 30, 7-methyl-5-(pyridin-4-ylamino)-2-(3-(pyridin-4-ylamino)phenyl)isoindolin-1-one]
> 5.30	O=C1c2ccc(Nc3ccncc3)c(F)c2CN1c1cccc(Nc2ccncc2)c1 [Compound 32, 4-fluoro-5-(pyridin-4-ylamino)-2-(3-(pyridin-4-ylamino)phenyl)isoindolin-1-one]
> 6.00	Cc1cc(Nc2cc(C)c3c(c2)CN(c2cccc(Nc4ccncc4)c2)C3=O)ccn1 [Compound 44, 7-methyl-5-((2-methylpyridin-4-yl)amino)-2-(3-(pyridin-4-ylamino)phenyl)isoindolin-1-one]
> 6.00	O=C1c2cc(F)c(Nc3ccncc3)cc2CN1c1cccc(Nc2ccncc2)c1 [Compound 33, 6-fluoro-5-(pyridin-4-ylamino)-2-(3-(pyridin-4-ylamino)phenyl)isoindolin-1-one]
> 5.70	O=C1c2ccc(Nc3ccncc3)cc2CN1c1cc(F)cc(Nc2ccncc2)c1 [Compound 37, 2-(3-fluoro-5-(pyridin-4-ylamino)phenyl)-5-(pyridin-4-ylamino)isoindolin-1-one]
> 6.00	O=C1c2ccc(Nc3ccncc3)cc2CN1c1ccc(F)c(Nc2ccncc2)c1 [Compound 38, 2-(4-fluoro-3-(pyridin-4-ylamino)phenyl)-5-(pyridin-4-ylamino)isoindolin-1-one]
> 5.30	Cc1cc(Nc2ccc(-c3nc4ccc(Nc5ccnc(C)c5)cc4o3)cc2)ccn1 [Compound 41, N-(2-methylpyridin-4-yl)-2-(4-((2-methylpyridin-4-yl)amino)phenyl)benzo[d]oxazol-6-amine]
> 5.30	Cc1cc2c(cc1Nc1ccncc1)CN(c1cccc(Nc3ccncc3)c1)C2=O [Compound 31, 6-methyl-5-(pyridin-4-ylamino)-2-(3-(pyridin-4-ylamino)phenyl)isoindolin-1-one]
> 5.30	Cc1cc(Nc2cccc(-c3nc4ccc(Nc5ccnc(C)c5)cc4o3)c2)ccn1 [Compound 42, N-(2-methylpyridin-4-yl)-2-(3-((2-methylpyridin-4-yl)amino)phenyl)benzo[d]oxazol-6-amine]
> 5.30	Cc1cc(Nc2ccc(-c3nc4cc(Nc5ccnc(C)c5)ccc4o3)cc2)ccn1 [Compound 39, N-(2-methylpyridin-4-yl)-2-(4-((2-methylpyridin-4-yl)amino)phenyl)benzo[d]oxazol-5-amine]
> 6.00	Cc1ccc(N2Cc3cc(Nc4ccncc4)ccc3C2=O)cc1Nc1ccncc1 [Compound 27, 2-(4-methyl-3-(pyridin-4-ylamino)phenyl)-5-(pyridin-4-ylamino)isoindolin-1-one]
> 6.00	Cc1cc(Nc2cccc(N3Cc4cc(Nc5ccnc(C)c5)cc(C)c4C3=O)c2)ccn1 [Compound 45, 7-methyl-5-((2-methylpyridin-4-yl)amino)-2-(3-((2-methylpyridin-4-yl)amino)phenyl)isoindolin-1-one]
> 5.70	Cc1cc(Nc2cccc(-c3nc4cc(Nc5ccnc(C)c5)ccc4o3)c2)ccn1 [Compound 40, N-(2-methylpyridin-4-yl)-2-(3-((2-methylpyridin-4-yl)amino)phenyl)benzo[d]oxazol-5-amine]
> 5.30	Cc1cc(Nc2ccc3oc(-c4cccc(Nc5ccc(F)cc5)c4)nc3c2)ccn1 [Compound 43, 2-(3-((4-fluorophenyl)amino)phenyl)-N-(2-methylpyridin-4-yl)benzo[d]oxazol-5-amine]
> 5.30	O=C1c2c(F)cc(Nc3ccncc3)cc2CN1c1cccc(Nc2ccncc2)c1 [Compound 34, 7-fluoro-5-(pyridin-4-ylamino)-2-(3-(pyridin-4-ylamino)phenyl)isoindolin-1-one]
